Experimental data taken from patent US20240285557A1, “PHARMACEUTICAL COMPOSITION COMPRISING LIPASE INHIBITOR FOR TREATMENT OR TREATMENT OF RNA VIRAL INFECTIONS” (priority 2021, published 2024).
Where two headings read alike, the source gives them in different places.

Tests used:
[1] = test system: A549 cells; test: MTT half-maximal cytotoxic concentration (CC50); conditions: drugs for 24 hours
Experimental: (§1) To determine the half-maximal cytotoxic concentration (CC50) of the lipase inhibitors atglistatin and CAY10499, Vero E6, A549, HRT-18G, MA104, MARC-145, and LLC-PK cells were prepared in monolayers in 96-well plates.
(§2) The cells were treated with the drugs for 24 hours, and the culture media was removed before addition of 200 μL of 3-(4,5-dimethylthiazol-2-yl)-2,5-diphenyl tetrazolium bromide (MTT) solution to each well. The plates were then incubated for 4 hours in a 5% CO2 incubator at 36° C. Subsequently, 150 μL of DMSO solution was added to each well and incubated at 20° C. The optical density (OD) was measured at 570 nm wavelength using an enzyme-linked immunosorbent assay (ELISA) reader.

[2] = test system: MA104 cells; test: MTT half-maximal cytotoxic concentration (CC50); conditions: MA104; drugs for 24 hours, MTT
Experimental: as §1, §2

[3] = test system: Vero E6 cells; test: MTT half-maximal cytotoxic concentration (CC50); conditions: Vero E6; drugs for 24 hours, MTT
Experimental: as §1, §2

[4] = test system: LLC-PK cells; test: MTT half-maximal cytotoxic concentration (CC50); conditions: LLC-PK; drugs for 24 hours, MTT
Experimental: as §1, §2

[5] = test system: HRT18G cells; test: MTT half-maximal cytotoxic concentration (CC50); conditions: drugs for 24 hours
Experimental: as §1, §2

[6] = MTT half-maximal cytotoxic concentration (CC50); conditions: dog
[7] = MTT half-maximal cytotoxic concentration (CC50); conditions: African green monkey
Experimental: as §1, §2

[8] = test system: Vero E6 cells
Experimental: as §1, §2

[9] = test system: LLC-PK cells
Experimental: as §1, §2

[10] = test system: MDCK cells
[11] = test system: A549, Vero E6, MDCK, HRT18G, MA04, MARC, and LLC-PK cells
Experimental: as §1, §2

[12] = test system: A549 cells
Experimental: as §1, §2

[13] = test system: MA104 cells
Experimental: as §1, §2

[14] = test system: MARC cells
Experimental: as §1, §2

`CCN(CC)C(=O)Nc1cccc(-c2ccc(N(C)C)cc2)c1` [DABPU-DE] showed a CC50 [1] of 213 µM, a CC50 [2] of 209 µM and a CC50 [3] of 222 µM. The CC50 [4] was 226 µM and the CC50 [5] was 177 µM.
Work on `CN(C)C(=O)Nc1cccc(-c2ccc(N(C)C)cc2)c1` [Atglistatin, 3-(4′-(dimethylamino)-(1,1′-biphenyl)-3-yl)-1,1-dimethylurea] yielded a CC50 at 24 h [6] of 269 µM.
With `CCN(C)C(=O)Nc1cccc(-c2ccc(N(C)C)cc2)c1` [DABPU-EM, 3-(4′-(dimethylamino)-(1,1′-biphenyl)-3-yl)-1-ethyl-1-methylurea] the CC50 at 24 h [7] was 210 µM.
Molecule `COc1nn(-c2ccc(NC(=O)OCc3ccccc3)c(C)c2)c(=O)o1` [CAY10499] has a CC50 [8] of 102 µM, a CC50 [9] of 109 µM and a CC50 [10] of 110 µM. The CC50 [11] was 101 to 110 µM, the CC50 [12] was 106 µM and the CC50 [13] was 107 µM. For the same molecule, the CC50 [14] was 101 µM.
